{"source": "patent US20090012152A1", "about": "“Use of Tetramic Acid Derivatives for Controlling Insects from the Genus of the Plane Lice (Sternorrhyncha)” (Bayer CropScience Aktiengesellschaft, priority 2005, published 2009)", "format_in_all_cases": "in vivo", "key": {"[1]": {"tested_on": "Quadraspidiotus perniciosus", "assay": "Example 21: almond tree treated against Quadraspidiotus perniciosus", "conditions": "on branches, per metre crown height: Dursban 2240 g/ha, I-4 110 g/ha", "experimental": "In four replications, an about 20-year-old almond tree of the cultivar “Non-Pareil” is treated against Quadraspidiotus perniciosus. The application is carried out using a high-pressure sprayer. Here, the active compound Example (I-4) (240 SC) in a tank mix with 0.125% a.i. of methylated seed oil (1000 EC) and the commercial standard Lorsban (480 EC) are tested at the stated application rates. The amount of spray liquor is 935 l/ha.\nEvaluation is carried out 21, 42 and 63 days after the treatment by rating the kill of the animals on the branches."}, "Aonidiella aurantii": {"tested_on": "Aonidiella aurantii", "assay": "Example 16: grapefruit tree treated against Aonidiella aurantii", "conditions": "on fruits, per metre crown height: Dursban 6.01 pounds/acre, I-4 72 g/ha", "experimental": "In four replications, an about 10-year-old grapefruit tree of the cultivar “Rio Red” is treated against Aonidiella aurantii. The application is carried out using a motor-operated barrow-mounted sprayer. Here, the active compound Example (I-4) (240 SC) and the commercial standard Dursban (480 EC) are tested at the stated application rates. The amount of spray liquor is 5.8 gallons per tree.\nEvaluation is carried out 28, 59 and 90 days after the treatment by rating the kill of the animals on the fruits."}, "Nasonovia ribisnigri": {"tested_on": "Nasonovia ribisnigri", "assay": "Example 42: head lettuce treated against Nasonovia ribisnigri", "conditions": "on plants, g a.i./ha: Pirimor 150, I-4 48, I-8 42", "experimental": "In four replications, plots of a size of 5 m^2 with head lettuce are, two weeks after transplantation, treated against Nasonovia ribisnigri. The application is carried out using a knapsack sprayer operated with pressurized air. Here, the active compounds Example (I-4) (240 SC) and Example (I-8) (240 SC) are, in a tank mix with 0.2% a.i. of rapeseed oil methyl ester (500 EW), tested against the commercial standard Pirimor, at the stated application rates. The application rate is 500 l of water/ha.\nEvaluation is carried out 7, 14 and 26 days after the treatment by rating the kill of the animals on the plants."}, "Lepidosaphes beckii": {"tested_on": "Lepidosaphes beckii", "assay": "Example 18: citrus trees treated against Lepidosaphes beckii", "conditions": "140 days after treatment, larvae on fruits, g a.i./ha/m crown height: pyriproxyfen 50, I-4 48", "experimental": "In three replications, in plots of a size of about 20 m^2, citrus trees of the cultivar “Oro Nules” are treated against Lepidosaphes beckii. The application is carried out using a high-pressure sprayer. Here, the active compound Example (I-4) (240 SC) in a tank mix with 0.1% a.i. of rapeseed oil methyl ester (500 EW) is tested against the commercial standard pyriproxyfen (100 EC), at the stated application rates. The application rate is 2500 l of water/ha.\nEvaluation is carried out 140 days after the treatment by rating the kill of the larvae on the fruits."}, "Pemphigus bursarius": {"tested_on": "Pemphigus bursarius", "assay": "Example 3: chrysanthemums, lettuce root aphid", "conditions": "on roots, spray on above-ground parts 96 g of a.i./ha", "experimental": "In three replications, in each case 10 about 5-month-old chrysanthemums (Camilla) in 2 l-vessels are treated against the lettuce root aphid Pemphigus bursarius. Here, the active compound Example (I-4) (240 SC) is applied with a knapsack sprayer operated by pressurized air at the beginning of the infestation at the stated application rates to the above-ground parts of the plants. The soil is covered with a film. The application rate is 600 l of water/ha. 0.1% a.i. of rapeseed oil methyl ester (500 EW) is added to the spray liquor. Omethoate as drip irrigation in a concentration of 0.1% is used for comparison. The application is carried out two days later.\nThe kill in percent is determined on the roots. […]"}, "Aulacorthum solani": {"tested_on": "Aulacorthum solani", "assay": "Example 46: head lettuce treated against Aulacorthum solani", "conditions": "nymphs on plants, g a.i./ha: endosulfan 1120, I-4 48", "experimental": "In four replications, plots of a size of about 33 m^2 with head lettuce of the cultivar “PIC 714” are treated against Aulacorthum solani, Macrosiphum euphorbiae and Myzus persicae. The application is carried out using a tractor sprayer. Here, the active compound Example (I-4) (240 SC), in a tank mix with 0.2% a.i. of rapeseed oil methyl ester (500 EW), is tested against the commercial standard endosulfan (360 EC), at the stated application rates. The application rate is 187 l of water/ha. Two treatments are carried out, at an interval of 22 days.\nEvaluation is carried out 8, 22, 30 and 40 days after the first treatment by rating the kill of the nymphs on the plants."}, "Bemisia argentifolii": {"tested_on": "Bemisia argentifolii", "assay": "Example 37: cantaloupe melons treated against Bemisia argentifolii", "conditions": "nymphs on leaves, g a.i./ha: endosulfan 1120, I-4 48", "experimental": "In four replications, plots of a size of about 39 m^2 with cantaloupe melons of the cultivar “Western Shipper” are treated against Bemisia argentifolii. The application is carried out using a knapsack sprayer operated with pressurized air. Here, the active compound Example (I-4) (240 SC), in a tank mix with 0.2 a.i. of rapeseed oil methyl ester (500 EW), and the commercial standard endosulfan (360 EC) are tested at the stated application rates. Two applications are carried out at an interval of 16 days. The application rate is 187 l of water/ha.\nEvaluation is carried out 5, 13, 21 and 29 days after the first treatment by rating the kill of the animals (nymphs) on the leaves."}, "Pulvinaria aurantii": {"tested_on": "Pulvinaria aurantii", "assay": "Example 11: satsuma trees treated against Pulvinaria aurantii", "conditions": "41 days after treatment; live animals counted, Henderson and Tilton; satsuma tree; % a.i.: buprofezin 0.025, I-4 0.0144", "experimental": "In three replications, in each case one about 4-year-old satsuma tree of the cultivar “Nankan 20” is treated against Pulvinaria aurantii. Here, the active compound Example (I-4) (240 SC) in a tank mix with 0.2% of rapeseed oil methyl ester (500 EW) at the stated application rate is tested against the commercial standard buprofezin at the stated application rate. The application is carried out using a motor-operated knapsack sprayer. Here, each plant is treated with 400 ml of spray liquor.\nEvaluation is carried out before and 41 days after the treatment by counting the live animals. The efficacy in percent is then calculated according to Henderson and Tilton."}}, "data": [{"smiles": "CCOC(=O)OC1=C(c2cc(C)ccc2C)C(=O)NC12CCC(OC)CC2", "note": "(stereo not drawn) [Example (I-4)]", "values": [{"measurement": "Kill (%) 21 d", "setting": "[1]; 21 d after treatment", "result": 84.9, "unit": "%"}, {"measurement": "Kill (%) 42 d", "setting": "[1]; 42 d after treatment", "result": 90, "unit": "%"}, {"measurement": "Kill (%) 63 d", "setting": "[1]; 63 d after treatment", "result": 94.6, "unit": "%"}, {"measurement": "Kill (%) 28 d", "setting": "Aonidiella aurantii; 28 d after treatment", "result": 92.7, "unit": "%"}, {"measurement": "Kill (%) 59 d", "setting": "Aonidiella aurantii; 59 d after treatment", "result": 100, "unit": "%"}, {"measurement": "Kill (%) 90 d", "setting": "Aonidiella aurantii; 90 d after treatment", "result": 100, "unit": "%"}, {"measurement": "Kill (%) 7 d", "setting": "Nasonovia ribisnigri; 7 d after treatment", "result": 92.3, "unit": "%"}, {"measurement": "Kill (%) 14 d", "setting": "Nasonovia ribisnigri; 14 d after treatment", "result": 95.7, "unit": "%"}, {"measurement": "Kill (%) 26 d", "setting": "Nasonovia ribisnigri; 26 d after treatment", "result": 95.1, "unit": "%"}, {"measurement": "Kill (%) 140 days", "setting": "Lepidosaphes beckii", "result": 100, "unit": "%"}, {"measurement": "Kill (%) 9 d", "setting": "Pemphigus bursarius; 9 d", "result": "46.9 (9 d) %"}, {"measurement": "Kill (%) (17 d)", "setting": "Pemphigus bursarius; 17 d", "result": "80.4 (17 d) %"}, {"measurement": "Kill (%) 8 d", "setting": "Aulacorthum solani; 8 d after first of two treatments", "result": 100, "unit": "%"}, {"measurement": "Kill (%) 22 d", "setting": "Aulacorthum solani; 22 d after first of two treatments", "result": 99, "unit": "%"}, {"measurement": "Kill (%) 30 d", "setting": "Aulacorthum solani; 30 d after first of two treatments", "result": 79, "unit": "%"}, {"measurement": "Kill (%) 40 d", "setting": "Aulacorthum solani; 40 d after first of two treatments", "result": 87, "unit": "%"}, {"measurement": "Kill (%) 5 d", "setting": "Bemisia argentifolii; 5 d after first of two treatments", "result": 100, "unit": "%"}, {"measurement": "Kill (%) 13 d", "setting": "Bemisia argentifolii; 13 d after first of two treatments", "result": 100, "unit": "%"}, {"measurement": "Kill (%) 21 d", "setting": "Bemisia argentifolii; 21 d after first of two treatments", "result": 98.1, "unit": "%"}, {"measurement": "Kill (%) 29 d", "setting": "Bemisia argentifolii; 29 d after first of two treatments", "result": 90.5, "unit": "%"}, {"measurement": "Effect (%)", "setting": "Pulvinaria aurantii", "result": 100, "unit": "%"}]}]}
